In brackets after ≈: the same amount, converted by molar mass.
Assays:
[1] = system: fluconazole susceptible and resistant C. albicans strains; assay: Broth microdilution antifungal susceptibility, ranges over strains; assay type: cell-based; conditions: Candida albicans; over the tested C. albicans strains
Protocol: In this study, 10 clinical Candida albicans isolates, comprising of 5 fluconazole susceptible and 5 fluconazole resistant, were used. C. albicans SC5314 was also used as a control laboratory strain. Clinical strains used in this study were stored at −80 °C supplemented with 20% glycerol in the Department of Clinical Microbiology and Infectious Diseases, University of the Witwatersrand, Johannesburg and were previously collected under the ethical clearance number M000402, obtained from the Human Research Ethics Committee, University of the Witwatersrand. For experimental purpose each strain from glycerol stock was recovered on Sabouraud Dextrose (SDA) agar plates at 37 °C for 24 h.
Minimum Inhibitory Concentration (MIC) and Minimum Fungicidal Concentrations (MFC) of all newly synthesized eugenol-tosylate congeners (ETC-1–ETC-7) against C. albicans strains were determined by broth microdilution assay in accordance with the approved guidelines described by Clinical and Laboratory Standards Institute (CLSI) guidelines M27-A[38]. The test compounds were prepared in 1% DMSO to a stock concentration of 8192 µg/ml. Two-fold dilutions of test compounds (100 µL) were prepared in 96-well flat-bottom microtiter plates, inoculated with 100 µl of inoculum (1 × 10^6 cells/mL) and incubated at 37 °C for 24 hours. In every set of experiment, positive control (fluconazole), negative vehicle control (1% DMSO) and culture control (media and cells only) were included. MIC’s were determined visibly as the lowest concentration of the test compounds that inhibited growth of test organism. To determine MFC, each well without visible growth was sub-cultured onto agar plates. Concentration in the first well with no growth on plate was taken as MFC. […] The experiment was performed in triplicate to validate the results.

[2] = system: C. albicans 4175, C. albicans 5112 and C. albicans SC5314; assay: FITC annexin V/PI staining flow cytometry, ranges over three strains; assay type: cell-based, Candida albicans; conditions: range over 0.5 × MIC, 1 × MIC, 2 × MIC and three strains
Protocol: (§1) To study the effect of test compounds on apoptotic markers protoplasts were prepared as described previously, with modifications. Briefly, mid-exponential phase cells were harvested and exposed to various concentrations of test compounds (0.5 × MIC, 1 × MIC and 2×MIC) for 3 h. The cells were then washed twice with protoplast buffer- I (1 M sorbitol, 50 mM tris base, 10 mM MgCl2 and 30 mM DTT) and incubated in the same buffer for 15 minutes at 25 °C, followed by centrifugation at 1500 rpm for 5 minutes. Supernatant was removed and cells were incubated with buffer- II (1 M sorbitol, 50 mM tris base, 10 mM MgCl2 and 1 mM DTT) supplemented with lyticase enzyme (≥1 µg/mL) used to digest the cell wall for 1 h at 25 °C. Buffer- II were removed by centrifugation and then cells were incubated with buffer- III (1 M sorbitol, 50 mM tris base and 10 mM MgCl2) for 20 minutes at room temperature. After the incubation cells were again centrifuged at 1500 rpm for 5 minutes and supernatant was discarded. Protoplasts then finally washed once with PBS and re-suspended in the same for further use. In each washing steps the volume of these protoplast buffers were 5 times to cell volume with pH 7.4.
This assay was used to identify early apoptosis by detecting movement of phosphatidylserine (PS) from the inner to the outer leaflet of plasma membrane. FITC annexin V Apoptosis Detection Kit I (BD Biosciences, CA, USA) was used according to the manufacturer’s instructions. Protoplasts of C. albicans cells treated with different concentrations of the test compounds, as mentioned in above section, were resuspended in 1X annexin V binding buffer ([…]) at a concentration of 1 × 10^6 cells per ml. To the 100 µl of this solution, 5 µl each of FITC annexin V and propidium iodide (PI) was added. Tubes were gently vortexed and incubated for 15 minutes at 25 °C in the dark. After incubation, 400 µl of 1X annexin V binding buffer was added to each tube and analyzed using the BD LSRFortessa Flow cytometer (Becton Dickinson, NJ, USA). The cell populations in four different quadrants of a quadrant dot plot were analyzed and interpreted as; Q1: necrosis (annexin V^−/PI^+), Q2: late apoptosis (annexin V^+/PI^+), Q3: early apoptosis (annexin V^+/PI^−) and Q4: viable cells (annexin V^−/PI^−), by using software FlowJo_V10.

[3] = system: cytochrome c oxidase activity in C. albicans SC5314, C. albicans 4175 and C. albicans 5112; assay: Cytochrome c oxidase activity in mitochondria of treated cells; assay type: cell-based, Candida albicans; conditions: 3 h, range over three strains
Protocol: as §1
After the cells were exposed to different concentrations of test compounds as mentioned above, mitochondria of the cells were isolated using Yeast Mitochondria Isolation Kit- MITOISO3 (Sigma – Aldrich St. Louis, MO, U.S.A.). Cytochrome c oxidase assay kit (ScienCell, Cat. No. 8278, CA, USA) was used to detect the cytochrome c oxidase activity. In all procedures, kits were used according to the manufacturer’s instructions. Briefly, prepared spheroplasts were followed by homogenization to release the mitochondria. Homogenate was centrifuged in 1X storage buffer (1 ml) at 6,500 × g for 10 minutes at 2–8 °C. […] Protein concentration was determined by using TCA Lowry method. […] Immediately change in absorbance of cytochrome c was measured at 550 nm on a kinetic program (duration 30 seconds, interval 5 seconds) by using UV-1800 SHIMADZU spectrophotometer (Shimadzu Corporation, Japan).

Which results are given for `C=CCc1ccc(OS(=O)(=O)c2ccc(C(=O)O)cc2)c(OC)c1` [ETC-7, 4-{[2-methoxy-4-(prop-2-en-1-yl)phenoxy]sulfonyl}benzoic acid]?
MFC [1]: 2 to 8 µg/mL (≈ 5.74 to 23 µM); MIC [1]: 1 to 4 µg/mL (≈ 2.87 to 11.5 µM); early apoptosis [2]: 8–32%; late apoptosis [2]: 2–26%; necrosis [2]: 1–31%; cytochrome c oxidase enzyme activity decreased up to ([3]; 0.5 × MIC): 11.33–18.07%; cytochrome c oxidase enzyme activity decreased up to ([3]; 1 × MIC): 9.20–13.92%; cytochrome c oxidase enzyme activity decreased up to ([3]; 2 × MIC): 5.21–9.88%
